Results: patent US10828269B2, “Reducing muscle atrophy by administering astaxanthin” (FUJI CHEMICAL INDUSTRIES CO., LTD., priority 2004, dated 2020)

Tests used:
Test in all cases: GeneChip gene expression in renal glomerulus
Type in all cases: in vivo, mouse
[1] = system: superoxide dismutase 1, soluble; details: 0.02% in diet, 12 weeks
Method: (§1) Type II diabetic female db/db mice and non-diabetic db/m were purchased from Clea Japan, Inc. Mice were bred under the conditions with a 12 hours light-dark cycle at a temperature of 21° C. to 25° C. For acclimation, mice were fed CE-2 (Clea Japan, Inc.) with free access to water for one week. The mice were divided into three groups each consisting of 8 mice (non-diabetic db/m, diabetic db/db, and astaxanthin-administered db/db) and each group was bred with feed ad libitum. Mice in astaxanthin-administered group were fed a diet in which 0.02% astaxanthin in terms of free astaxanthin was compounded with CE-2. Each group was bred for 12 weeks, and body weight, blood glucose levels, 8-OHdG levels in urine, albumin levels in urine, and kidney histopathology, were measured. Astaxanthin used here was AstaReal (registered trademark, Fuji Chemical Industry Co., Ltd.) 50F, which is oil composed of astaxanthin fatty acid ester and triglycerides and contains 5% astaxanthin in terms of free astaxanthin.
(§2) After the period of test breeding, kidney was removed and frozen at −80° C. Using an LM200 system (Olympus Corporation), the renal glomerulus was cut from kidney of mice while keeping low temperature. tRNA of renal glomerulus was extracted using tRNA extraction regent “Isogen” (produced by Nippon Gene Co., Ltd.), and then preparation of cRNA and hybridization were performed according to the Affymetrix GeneChip Eukaryotic Small Sample Target Labeling Assay Ver. II.
(§3) (1) Synthesis of first strand cDNA: 1 μL of total RNA solution and 1 of 5 μM T7-Oligo(dT) primer were mixed, heated at 70° C. for 6 minutes, and then cooled at 4° C. for 2 minutes. 3 μL of RT_Premix_1 (1.5 μL DEPC-treated water, 4 μL 5× First strand Buffer, 2 μL DTT (0.1 M), 1.5 μL dNTP Mix (10 mM), 1 μL RNase inhibitor (40 U/μL), and 2 μL Super-Script II (200 U/μL)) was added and reverse transcribed at 42° C. for 1 hour. The sample was heated at 70° C. for 10 minutes to inactivate Super Script II, and then cooled to 4° C. (2) Synthesis of second strand cDNA: 32.5 μl of SS_Premix_1 (91 μL DEPC-treated water, 30 μL 5× Second Strand Buffer, 3 μL dNTP (10 mM), 1 μL E. coli DNA ligase (10 U/μL); 4 μL E. coli DNA polymerase (10 U/μL), and 1 μL RNase H (2 U/μL)) was added to the first strand cDNA solution and allowed to react for 2 hours at 16° C. (3) To the resulting cDNA, was added 1 μL T4 DNA polymerase (5 U/μl) and allowed to react for 10 minutes at 16° C., and purified by ethanol precipitation. (4) In vitro transcription: To the dried double-stranded cDNA pellet, was added 10 μL of reagents (4 μL DEPC-treated water, 4 μL premixed NTPs, 1 μL 10× reaction buffer, and 1 μL 10× enzyme mix), and allowed to react at 37° C. in a water bath for 6 hours. (5) First cycle cRNA was purified using the RNeasy Mini Kit in accordance with the protocol in the handbook (QIAGEN). (6) Subsequently, for the amplification and labeling, the cRNA sample was mixed with random primers (0.2 μg/μL), treated at 70° C. for 10 minutes, cooled on ice for 2 minutes, 5 μL of RT_Premix_2 (5× First Strand Buffer, DTT (0.1 M), dNTP mix (10 mM), RNase inhibitor (40 U/μL), and SuperScript II (200 U/μL) was added, and allowed to react at 42° C. for 1 hour. (7) Next, Second Sstrand cDNA synthesis was carried out by adding 5 μM T7-Oligo(dT) promoter treating at 70° C. for 6 minutes, cooling at 4° C., and adding 62 μL of SS_Premix_2 (43 μL it DEPC-treated water, 15 μL 5× Second Strand Buffer, 1.5 μL dNTP mix (10 mM), and 2 μL E. coli DNA polymerase (10 U/μL)). (8) To the resulting cDNA, was treated added 1 μL of T4 DNA polymerase (5 U/μL), allowed to react at 16° C. for 10 minutes, and purified by ethanol precipitation. […]

[2] = system: macrophage scavenger receptor 1; details: probe 1448061_at, 0.02% in diet, 12 weeks
Method: as §1, §2, §3

peroxiredoxin 1 = details: probe 1436691_x_at, 0.02% in diet, 12 weeks
Method: as §1, §2, §3

ring finger protein 128 = details: probe 1449036_at, 0.02% in diet, 12 weeks
Method: as §1, §2, §3

fibrosin 1 = details: probe 1433816_at, 0.02% in diet, 12 weeks
Method: as §1, §2, §3

[3] = system: C1q and tumor necrosis factor related protein 5; details: probe 1424762_at, 0.02% in diet, 12 weeks
Method: as §1, §2, §3

secreted posphoprotein 1 = details: probe 1449254_at, 0.02% in diet, 12 weeks
Method: as §1, §2, §3

[4] = system: Blymphoma Mo-MLV insertion region 1; details: probe 1448733_at, 0.02% in diet, 12 weeks
Method: as §1, §2, §3

catalase = details: probe 1416430_at, 0.02% in diet, 12 weeks
Method: as §1, §2, §3

[5] = system: transforming growth factor beta 1 induced transcript 4; details: 0.02% in diet, 12 weeks
Method: as §1, §2, §3

FK506 binding protein 1a = details: probe 1448184_at (Table 4), 0.02% in diet, 12 weeks
Method: as §1, §2, §3

[6] = system: isocitrate dehydrogenase 1 (NADP+), soluble; details: probe 1419821_s_at, 0.02% in diet, 12 weeks
Method: as §1, §2, §3

septin 7 = details: probe 1454610_at, 0.02% in diet, 12 weeks
Method: as §1, §2, §3

CC1=C(/C=C/C(C)=C/C=C/C(C)=C/C=C/C=C(C)/C=C/C=C(C)/C=C/C2=C(C)C(=O)C(O)CC2(C)C)C(C)(C)CC(O)C1=O (stereo not drawn) [astaxanthin, 3,3′-dihydroxy-β,β-carotene-4,4′-dione]
gene expression relative ratio db/db(Ax):db/db [1]: 0.23 | gene expression relative ratio db/db(Ax):db/m ([1]; probe 1448184_at (Table 5)): 4.00 | gene expression intensity ratio db/db(Ax):db/db [2]: 0.25 | gene expression intensity ratio db/db(Ax):db/m [2]: 1.32 | gene expression relative ratio db/db(Ax):db/db (peroxiredoxin 1): 0.14 | gene expression relative ratio db/db(Ax):db/m (peroxiredoxin 1): 9.19 | gene expression relative ratio db/db(Ax):db/db (ring finger protein 128): 0.1 | gene expression relative ratio db/db(Ax):db/m (ring finger protein 128): 1.62 | gene expression relative ratio db/db(Ax):db/db (fibrosin 1): 0.31 | gene expression relative ratio db/db(Ax):db/m (fibrosin 1): 8 | gene expression intensity ratio db/db(Ax):db/db [3]: 2.00 | gene expression intensity ratio db/db(Ax):db/m [3]: 1.23 | gene expression relative ratio db/db(Ax):db/db (secreted posphoprotein 1): 0.13 | gene expression relative ratio db/db(Ax):db/m (secreted posphoprotein 1): 0.66 | gene expression relative ratio db/db(Ax):db/db [4]: 0.76 | gene expression relative ratio db/db(Ax):db/m [4]: 8.00 | gene expression relative ratio db/db(Ax):db/db (catalase): 0.33 | gene expression relative ratio db/db(Ax):db/m (catalase): 8.57 | gene expression relative ratio db/db(Ax):db/db ([5]; probe 1425742_a_at): 0.33 | gene expression relative ratio db/db(Ax):db/m ([5]; probe 1425742_a_at): 1.41 | gene expression relative ratio db/db(Ax):db/db ([5]; probe 1454971_x_at): 0.57 | gene expression relative ratio db/db(Ax):db/m ([5]; probe 1454971_x_at): 3.25 | gene expression relative ratio db/db(Ax):db/db (FK506 binding protein 1a): 0.66 | gene expression relative ratio db/db(Ax):db/m (FK506 binding protein 1a): 6.50 | gene expression relative ratio db/db(Ax):db/db [6]: 0.33 | gene expression relative ratio db/db(Ax):db/m [6]: 6.96 | gene expression relative ratio db/db(Ax):db/db (septin 7): 0.76 | gene expression relative ratio db/db(Ax):db/m (septin 7): 36.76
